The values below come from PubChem BioAssay AID977607 (Broad Institute, 2014).

Where “and” joins values, the source holds several entries; their conditions need not be identical. Identical values can stand only once. Calls of active or inactive are those of the source.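 How the source made its calls: active means curve reaches 40% activation over neutral controls at an AC40 no higher than the top valid tested concentration; inconclusive means no clear call, values can overlap the other calls; inactive means signal moving opposite to the expected increase, and the rest.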

In the experiment the test system is INS-1E GLuc insulin secretion reporter, luminescence, 2-3 h. Put plainly: activators of glucose-dependent insulin secretion, dose response, cell-based, INS-1E, Gaussia luciferase, luminescence, cherry-pick, set 2 (AID 977607).
Regarding `COc1ccc(CN(C)C(=O)Cn2cc(C)c(=O)[nH]c2=O)cc1OC`, the AC40 is > 35 µM (inactive).
For `NS(=O)(=O)c1ccc(CCNc2nc3c(-c4cccc(F)c4)nnn3c3ccccc23)cc1`, the AC40 is 15.9 µM.
In the case of `CCOc1cc(N2CCOCC2)c(OCC)cc1NC(=O)COC(=O)c1cc2ccccc2cc1O`, the AC40 is 10.3 µM.
As to `O=C(CCN1CCOCC1)c1ccccc1`, the AC40 is 7.71 µM.
To `O=C(NCCC1=CCCCC1)C(=O)NCC(c1ccco1)N1CCN(c2ccccc2)CC1` (stereo unspecified) belongs 6.33 µM; to `O=C(N/N=C\c1ccc(CNS(=O)(=O)c2ccc(Cl)cc2)o1)C(=O)Nc1ccc(Oc2ccccc2)cc1`, 13.9 µM; to `OC(c1ccccc1)(c1ccccc1)C1CCN(CCCOc2cccc(OC(F)(F)F)c2)CC1`, 5.24 µM.
Consider `COC(=O)c1cnn(-c2nc(-c3ccccc3)cs2)c1N`, for which the AC40 is > 35 µM (inactive).
On to `N#Cc1cccc(Oc2ccc(-c3cnc4ccccc4n3)cc2)c1C#N`, for which the AC40 is 13.1 µM.
As for `COc1ccc(-c2ccncc2)cc1OC`, the figure is 13 µM.
To `Cc1ccc(-n2ncc3c(=O)n(CC(=O)Nc4cccc(Cl)c4)cnc32)cc1C` belongs 6.37 µM; to `COc1cc2c(cc1OC)-c1cc(Nc3ccc(C)cc3)nc(=O)n1CC2`, 11.8 µM.
On to `COc1ccc(S(=O)(=O)Nc2ccccc2OC)cc1N=Nc1c(O)[nH]c(=S)[nH]c1=O`, for which the AC40 was 16.4 µM.
Turning to `CCOc1ncccc1C(=O)Nc1ccccc1F`, the AC40 is > 35 µM (inactive).
Regarding `CC(=O)Nc1c(C(=O)C2CC2)oc2ccccc12`, the AC40 was 6.8 µM.
For `N#CCc1nn(-c2ccccc2)c2ncnc(N)c12`, the AC40 was 11.9 µM.
With `Cc1c(C(=O)OCC(=O)N2CC(=O)Nc3ccccc32)oc2ccc(Br)cc12`, the AC40 was 4.76 µM.
To `O=C(Nc1cccc(Cl)c1)Nc1nnc(CSCCOc2ccc(Cl)cc2)s1` belongs 5.57 µM; to `COc1ccc(NC(=O)c2sc3nc(N4CCOCC4)c4c(c3c2N)CC(C)(C)OC4)c(OC)c1`, 6.55 µM; to `CNc1nc(Nc2ccccc2)nc(OCC(F)(F)F)n1`, 0.606 µM.
Turning to `COc1cc(/C=N/NC(=O)C(C)n2nnc3ccccc32)ccc1O` (stereo unspecified), the AC40 is 6.55 µM.
In the case of `O=C(CC1c2ccccc2Oc2ccccc21)Nc1ccccc1C(F)(F)F`, the AC40 was 6.13 µM.
In the case of `Cc1ccc(NC(=O)c2ccc(COc3ccc4c(c3)CCC4)cc2)c(C)c1`, the AC40 was 1.27 µM.
To `Cc1cccc(-c2ccc(C3[C@@H]4CN(C(=O)C5CCCCC5)C[C@H]3N4)cc2)c1` (stereo partly specified) belongs 18.5 µM; to `CC1(C(=O)NS(=O)(=O)c2ccc(C#N)cc2)CCN1C(=O)C1(c2ccccc2)CCCC1` (stereo unspecified), > 35 µM (inactive).
On to `Cc1ccc(-n2nc3ccc(NC(=O)c4ccco4)cc3n2)cc1`, for which the AC40 is 10.8 µM.
With `O=C1N/C(=N\N=C\c2cccs2)SC1Cc1cccc(Cl)c1` (stereo unspecified), the AC40 was 9.04 µM.
As for `CCOc1ccc(-n2nnnc2-c2nc3ccccc3s2)cc1`, the AC40 was 6.78 µM.
In the case of `COc1cccc(-c2cc(C(=O)Nc3cc(C)on3)no2)c1`, the AC40 was 19.2 µM.
Regarding `Cc1ccc(CN(C(=O)c2cccs2)C2CCS(=O)(=O)C2)cc1` (stereo unspecified), the AC40 was 19.7 µM.
To `COc1cc(OC)c2c3c(c(C4CCCCC4)nc2c1)CCC3` belongs 9.8 µM.
To `C/C(Cl)=C/CSc1nc2c(c(=O)[nH]c(=O)n2C)n1C(C)C` belongs 20 µM; to `CC1(C(=O)NCc2cccc3ccccc23)CCN1Cc1ccc(OC(F)(F)F)cc1` (stereo unspecified), 14.3 µM; to `Cc1cc(NC(=O)c2cc(-c3cccc(Cl)c3)on2)no1`, 5.68 µM.
As for `c1ccc(Cn2nnc3c(N4CCc5ccccc54)ncnc32)cc1`, the AC40 was 5.06 µM.
With `COc1ccc(C2=Nn3c(nnc3-c3ccccc3F)SC2)cc1OCC1CC1`, the AC40 is 1.23 µM.
Regarding `CCOC(=O)c1c(C)n(-c2ccc(C)cc2)c2ccc(OCC(O)CN3CCN(C)CC3)cc12` (stereo unspecified), the AC40 was 12.3 µM.
Consider `COc1ccc(NC(=O)Cn2cnc3c(cnn3-c3ccc(C)c(C)c3)c2=O)c(OC)c1`, for which the AC40 is 5.6 µM.
For `NC[C@H](Cc1ccccc1)NCCc1cc(C(F)(F)F)cc(C(F)(F)F)c1`, the AC40 was 14.9 µM.
To `O=C(Nc1ccc2c(c1)OCO2)N1C[C@@H]2N[C@H](C1)C2c1ccc(C=Cc2ccccc2)cc1` (stereo partly specified) belongs 9.05 µM.
For `OC(c1ccccc1)(c1nc(-c2cccc(C(F)(F)F)c2)cs1)C(F)(F)F` (stereo unspecified), the AC40 is 10.3 µM.
For the compound `Fc1cccc(CN2C[C@@H]3N[C@H](C2)[C@@H]3c2ccc(-c3cccc(F)c3)cc2)c1`, the AC40 is 3.93 µM.
Take `NC(CCc1ccccc1)c1csc(Nc2ccc(C(F)(F)F)cn2)n1` (stereo unspecified): the AC40 was 10.4 µM.
As for `Cc1ccccc1-c1ccc(C2[C@@H]3CN(S(=O)(=O)c4ccccc4C)C[C@H]2N3)cc1` (stereo partly specified), the figure is 9.88 µM.
To `COc1ccc(-c2ccc(-c3noc(-c4ccco4)n3)c(OC)n2)cc1` belongs 7.71 µM; to `OC(CNCCc1ccc(C(F)(F)F)cc1)COc1cccc2ccccc12` (stereo unspecified), 4.54 µM; to `COc1cccc(-c2sc3ccccc3c2-c2ccc(OCCN(C)C)cc2)c1`, 3.37 µM.
For `CCOC(=O)c1oc2ccccc2c1NC(=O)c1cccs1`, the AC40 is 14 µM.
To `O=C(Nc1ccc(C(F)(F)F)cc1)N1[C@@H]2CNC[C@H]1C2c1ccc(/C=C/c2ccccc2)cc1` (stereo partly specified) belongs 9.53 µM.
On to `Nc1nc(N)c2cc(Sc3ccc(Cl)cc3)ccc2n1`, for which the AC40 was 7.16 µM.
For the compound `O=C(NCC1OCCc2ccccc21)c1ccc(NC(=O)c2ccc(Cl)cc2)cc1` (stereo unspecified), the AC40 is 5.18 µM.
As to `Cn1c(=O)c(C(=O)NNC(=O)c2cccc(Cl)c2)c(O)c2ccccc21`, the AC40 is 7.02 µM.
On to `CC(=O)Oc1ccc(Cl)cc1/C=C/c1ccc2ccccc2n1`, for which the AC40 is 24.9 µM.
To `CCOc1ccc(CCNC(=O)COc2cc(=O)n(C)c3ccccc23)cc1OCC` belongs 22.6 µM; to `CC(C)CSc1nc2c(c(=O)[nH]c(=O)n2C)n1CCc1ccccc1`, 8.81 µM; to `c1ccc(-c2nnc3n2-c2ccccc2SC3)cc1`, > 35 µM (inactive).
`O=C(Cn1ncc(Cl)c(Cl)c1=O)Nc1ccc2c(c1)OCO2`: the AC40 was 12 µM.
Take `CS(=O)(=O)N1CCN(c2ccc(NC(=O)c3ccc(-c4ccc(Cl)cc4)o3)cc2)CC1`: the AC40 is 9.25 µM.
Turning to `CCCc1nc2ccccc2c(=O)n1CC(=O)c1ccc(OC)cc1`, the AC40 is 16.4 µM.
Take `NC(N)=N/N=C/c1ccc(N(c2ccccc2)c2ccccc2)cc1`: the AC40 was 5.68 µM.
Turning to `O=C(c1cccs1)c1coc2ccc(O)c(CN3CCOCC3)c12`, the AC40 is > 35 µM (inactive).
For the compound `CC(C)Nc1nc(Nc2ccc(C(N)=O)cc2)c2sccc2n1`, the AC40 was 9.89 µM.
Regarding `CN(C)CCOc1ccc(-c2c(-c3ccccc3)sc3ccccc23)cc1`, the AC40 is 2.75 µM.
In the case of `CN(C)CCCNc1cc(C(C)(C)C)nc2c(-c3ccc(Cl)cc3)cnn12`, the AC40 was 7.08 µM.
`Cc1ccc(C(=O)Oc2ccc(-c3nccc(-c4ccccn4)n3)cc2)cc1`: the AC40 was 3.99 µM.
On to `COC(=O)c1sccc1NC(=O)COc1ccc(Cl)cc1Cl`, for which the AC40 was 9.33 µM.
As for `COc1ccc(C(O)c2nc(-c3ccc(OC)c(OC)c3)cs2)cc1` (stereo unspecified), the AC40 was > 35 µM (inactive).
For the compound `CCOc1ccc2nc(NCCNC(=O)Nc3ccccc3)c(C#N)cc2c1`, the AC40 is 5.63 µM.
Take `O[C@H]1C[C@H](c2ccccc2)N(CC2CCCCC2)C[C@@H]1n1cc(C2CC2)nn1`: the AC40 was 11.5 µM.
As for `Cc1ccc(S(=O)(=O)C=CS(=O)(=O)c2ccc(C)cc2)cc1`, the AC40 was 0.224 µM.
Take `CC(C)C(Cl)=NOC(=O)Nc1ccc(S(N)(=O)=O)cc1`: the AC40 was 10.2 µM.
In the case of `O=c1[nH]cnc2nc(-c3ccc(N(CCCl)CCCl)cc3)[nH]c12`, the AC40 is 5.89 µM.
Take `COc1ccc(C(=O)N=C2CCC(C#N)=C3c4cc(OC)c(OC)cc4CCN23)cc1`: the AC40 was 0.483 µM.
To `CNC[C@H](CC1CCCCC1)NC[C@H](Cc1ccccc1)NCCC12CC3CC(CC(C3)C1)C2` belongs 8.32 µM.
On to `Cc1ccc(-c2ccc(C3[C@@H]4CN(C(=O)Nc5ccc(C(F)(F)F)cc5)C[C@H]3N4)cc2)cc1` (stereo partly specified), for which the AC40 is 4.06 µM and 2.82 µM.
With `CC(=O)c1nn(-c2ccc(Br)cc2)cc1C(=O)c1ccccc1`, the AC40 was 8.45 µM.
On to `CCCc1cc(-c2nc(-c3ccc(C)cc3)cs2)ccn1`, for which the AC40 is 10.2 µM.
On to `C=CCNC(=S)N/N=C/c1ccc(-c2cc(Cl)ccc2Cl)o1`, for which the AC40 is 5.15 µM.
For the compound `COc1ccc(-c2ccc(SCc3cccnc3)nn2)cc1OC`, the AC40 is 0.451 µM.
As for `OC(CNCCc1ccc(C(F)(F)F)cc1)COC(c1ccccc1)c1ccccc1` (stereo unspecified), the figure is 6.21 µM; as for `Cc1ccc(C)c(C(=O)Nc2nc3ccccc3[nH]2)c1`, 8.78 µM.
For the compound `O=C1CC(Sc2nnc(-c3ccccc3)o2)C(=O)N1c1ccccc1` (stereo unspecified), the AC40 was 12.1 µM.
Consider `Cc1ccccc1NC(=O)c1ccc(OCc2c(C)noc2C)cc1`, for which the AC40 was > 35 µM (inactive).
For `Cc1nn(Cc2ccc(Cl)cc2Cl)c(Cl)c1C(=O)Nc1ccc(OC(F)F)cc1`, the AC40 was 6.5 µM.
Consider `CCSc1nnc(NC(=O)c2csc3c2CCCC3)s1`, for which the AC40 is 2.22 µM.
In the case of `O=c1[nH]c(/C=C/c2ccc(OC(F)F)cc2)nc2c1cnn2-c1ccccc1`, the AC40 is 21.6 µM.
As for `CC(=O)Nc1cc(-c2cccc(C(=O)NCCN(C)C)c2)cn2c(-c3cccc(C(F)(F)F)c3)cnc12`, the AC40 was 14.7 µM.
With `C=CCN(Cc1ccc(OC)c(OC)c1)C(=O)N1CCOCC1`, the AC40 was > 35 µM (inactive).
Consider `CCn1c(SCc2cc(=O)[nH]c3ccccc23)nc2c1c(=O)n(C)c(=O)n2C`, for which the AC40 was 1.42 µM.
Turning to `Fc1ccc(/C=N/c2c(-c3ccc(F)cc3)nc3n2CCS3)cc1`, the AC40 was 6.62 µM.
`CC(=O)C1=C(S(=O)(=O)c2ccc(C)cc2)CS(=O)(=O)C1`: the AC40 was 1.23 µM.
With `CCOc1ccc(/C=N/NC(=O)c2cc(-c3ccco3)nc3ccccc23)cc1`, the AC40 is 8.25 µM.
Regarding `CN(C)CCOc1ccc(-c2c(-c3ccsc3)sc3ccccc23)cc1`, the AC40 was 10.9 µM.
For `CCC(=O)Nc1ccc(Cl)c(NC(=S)NC(=O)COc2ccc(Cl)cc2)c1`, the AC40 was 7.71 µM.
To `O=C(NCC1OCCc2ccccc21)c1ccc(NC(=O)c2cccc(Br)c2)cc1` (stereo unspecified) belongs 14 µM; to `Cc1cc(OCCCN2CCC(C(O)(c3ccccc3)c3ccccc3)CC2)ccc1Br`, 4.77 µM.
